Where two headings read alike, the source gives them in different places.
How the values were obtained:
cruzain = target: T1, cruzain (Trypanosoma cruzi, UniProt P25779); assay: Cruzain inhibition assay (cleavage of fluorogenic substrate Z-Phe-Arg-AMC); type: biochemical; conditions: for inhibition at 100 µM: at 100 μM inhibitor, mean of three measurements, read-out: Percent inhibition against cruzain; for IC50: mean ± SD of three individual experiments, at least six inhibitor concentrations in triplicate, 1.5 nM cruzain, 5.0 μM Z-Phe-Arg-AMC, pH 5.5
T1 construct: inferred from Ni-NTA purification of the pro-enzyme; made in house; host or cells: Escherichia coli (M15)
Description: The catalytic activity of cruzain was monitored by cleavage of the fluorogenic substrate Z-Phe-Arg-aminomethyl coumarin (Z-Phe-Arg-AMC) as previously described (Ferreira et al., [2014]). The enzyme kinetics assays were performed in 0.1 M sodium acetate buffer (pH 5.5) with 5 mM dithiothreitol (DTT) and 0.01% Triton X-100. […] The enzyme reaction was monitored for 5 min at 30°C in 96-well black flat bottom plates, and the activity was calculated based on the initial rates compared with a control (DMSO). Wavelengths of 355 nm for excitation and 460 nm for emission were used. IC50 values were independently determined by determining rate measurements for at least six inhibitor concentrations, each evaluated in triplicate. To determine the mechanism of inhibition, eight substrate concentrations and four inhibitor concentrations were used, each in triplicate. The mechanism of inhibition was determined by Lineweaver-Burk plots. SigmaPlot 10.0 (Systat Software Inc., Erkrath, Germany) was used to determine the IC50 values.

[1] = system: T. cruzi intracellular amastigotes; assay: T. cruzi intracellular amastigote assay (Tulahuen lacZ strain, CPRG readout); type: cell-based, Trypanosoma cruzi; conditions: for IC50: Trypanosoma cruzi, read-out: IC50 T. cruzi
Description: In vitro assays against T. cruzi were performed as described previously (Ferreira et al., [2014]). The T. cruzi Tulahuen strain, which expresses the E. coli β-galactosidase gene lacZ (Buckner et al., [1996]), was provided by Frederick S. Buckner (University of Washington, Seattle, WA). Stock solutions of the synthesized compounds were prepared in 100% DMSO. Epimastigotes were grown in liver infusion tryptone (LIT) supplemented with 10% fetal calf serum (FCS), penicillin and streptomycin (28°C). Metacyclogenesis from epimastigotes to trypomastigotes was induced by incubation of the epimastigotes in Grace's insect medium (Sigma-Aldrich, St. Louis, MO) supplemented with 10% FCS (28°C). HFF-1 human fibroblasts were seeded at 2 × 10^3/well (80 μL) in 96-well tissue culture plates in RPMI 1640 without phenol red supplemented with 10% FCS and incubated overnight (37°C, 5% CO2). Next, trypomastigotes were added at 1.0 × 10^4/well (20 μL), and the plates were incubated (37°C, 5% CO2). After 24 h, 3-fold serial dilutions (50 μL) of the synthesized compounds were added at concentrations ranging from 0.1 to 100 μM, and the plates were incubated (37°C, 5% CO2). Each compound concentration was evaluated in triplicate. All plates included BZ (Sigma-Aldrich) as a positive control and untreated wells (100% growth) as a negative control. After 120 h, 50 μL of chlorophenol red β-D-galactopyranoside (CPRG, Sigma-Aldrich) and IGEPAL CA-630 (Sigma-Aldrich) (0.1%) was added to each well. The absorbance was measured at 570 nm in an automated microplate reader, and the data were transferred to SigmaPlot 10.0 (Systat Software Inc.) for IC50 value calculation.

[2] = Cytotoxicity in HFF-1 cells (MTS tetrazolium assay); type: cell-based; conditions: human, HFF-1 fibroblasts, mean ± SD of two independent assays
Description: (§1) The cytotoxicities of the compounds against HFF-1 fibroblasts and HepG2 hepatocytes were evaluated using the MTS tetrazolium assay (Promega, Madison, WI) (Barltrop et al., [1991]). HFF-1 fibroblasts were seeded at 2 × 10^3/well in 96-well culture plates in RPMI 1640 without phenol red supplemented with 10% FCS and incubated overnight (37°C, 5% CO2). HepG2 hepatocytes were seeded at 6 × 10^3/well in 96-well culture plates in DMEM (Cultilab, Campinas SP) supplemented with 10% FCS and incubated overnight (37°C, 5% CO2). The compounds were added in 3-fold serial dilutions, and the plates were incubated at 37°C with 5% CO2. Each compound concentration was evaluated in triplicate. All plates included doxorubicin (Sigma-Aldrich, St. Louis, MO) as a positive control and untreated wells (100% growth) as a negative control. After 72 h, 20 μL of MTS was added, and the plates were incubated for 4 h. The absorbance was measured at 490 nm in an automated microplate reader, and the data were transferred to SigmaPlot 10.0 (Systat Software Inc., Erkrath, Germany) for IC50 value calculation. The percent of nonviable cells was determined and compared to the negative control wells (100% growth).

[3] = Cytotoxicity in HepG2 cells (MTS tetrazolium assay); type: cell-based; conditions: human, HepG2 hepatocytes, mean ± SD of two independent assays
Description: as §1

[4] = parameters: method as in Pérez-Molina and Molina, 2018; conditions: patients under treatment; ref Pérez-Molina and Molina, 2018; cited from earlier work
[5] = intracellular amastigotes, Tulahuen strain in HFF-1 fibroblasts, 120 h, mean ± SD of two experiments

T1 sequence (P25779 123-337 limits assumed): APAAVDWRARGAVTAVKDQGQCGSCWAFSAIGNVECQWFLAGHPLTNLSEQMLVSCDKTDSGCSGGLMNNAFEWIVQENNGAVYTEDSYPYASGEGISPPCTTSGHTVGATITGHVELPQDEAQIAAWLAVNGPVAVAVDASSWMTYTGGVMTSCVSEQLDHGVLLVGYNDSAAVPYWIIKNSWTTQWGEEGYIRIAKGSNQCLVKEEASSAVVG

| SMILES | inhibition at 100 µM (cruzain) [%] | IC50 [1, 5] [µM] | CC50 at 72 h [2] [µM] | CC50 at 72 h [3] [µM] | IC50 (cruzain) [µM] | decrease in potency against cruzain relative to 3a (cruzain; less active than 3a) [fold] | increase in potency against cruzain (cruzain; 10f compared with 10c/10e) [fold] | increase in potency against cruzain relative to 3a (cruzain; more active than 3a) [fold] | trypanocidal activity relative to BZ ([1]; higher than that of BZ) [fold] | activity against T. cruzi (in words) ([1]; intracellular amastigotes) | IC50 ([1]; TULAHUEN, HFF-1, 120 h) [µM] | patients with severe adverse effects [4] | activity against cruzain (in words) (cruzain) |
| --- | --- | --- | --- | --- | --- | --- | --- | --- | --- | --- | --- | --- | --- |
| CC(C)CC(C(=O)OCC(=O)Nc1ccc(N(C)C(=O)OC(C)(C)C)cc1)N1C(=O)C2CC=CCC2C1=O (centres unmarked) [3k] | 7 | 3.9 ± 0.9 | > 100 | > 64 |  |  |  |  |  |  |  |  |  |
| COc1ccc(NC(=O)COC(=O)[C@H](CC(C)C)N2C(=O)C=CC2=O)cc1Cl [10c, 2-((3-chloro-4-methoxyphenyl)amino)-2-oxoethyl (S)-2-(2,5-dioxo-2,5-dihydro-1H-pyrrol-1-yl)-4-methylpentanoate] | 95 | 0.9 ± 0.3 | 12 ± 1 | 33 ± 5 | 2.3 ± 1 |  |  |  |  |  |  |  |  |
| COc1ccc(NC(=O)COC(=O)[C@H](CC(C)C)N2C(=O)CCC2=O)cc1Cl [10d, 2-((3-chloro-4-methoxyphenyl)amino)-2-oxoethyl (S)-2-(2,5-dioxopyrrolidin-1-yl)-4-methylpentanoate] | 88 | 18.5 ± 3.1 | > 100 | > 64 | 12 ± 1 | 6 |  |  |  |  |  |  |  |
| COc1ccc(NC(=O)COC(=O)[C@H](CC(C)C)N2C(=O)C=C(C)C2=O)cc1Cl [10e, 2-((3-chloro-4-methoxyphenyl)amino)-2-oxoethyl (S)-4-methyl-2-(3-methyl-2,5-dioxo-2,5-dihydro-1H-pyrrol-1-yl)pentanoate] | 94 | 1.2 ± 0.3 | 4.8 ± 0.5 | 5 ± 1 | 2.5 ± 0.6 |  |  |  |  |  |  |  |  |
| COc1ccc(NC(=O)COC(=O)[C@H](CC(C)C)N2C(=O)C(Cl)=C(Cl)C2=O)cc1Cl [10f, 2-((3-chloro-4-methoxyphenyl)amino)-2-oxoethyl (S)-2-(3,4-dichloro-2,5-dioxo-2,5-dihydro-1H-pyrrol-1-yl)-4-methylpentanoate] | 100 | 2 ± 0.7 | 33 ± 9 | > 64 |  |  | 6 |  |  |  |  |  |  |
| COc1ccc(NC(=O)COC(=O)[C@H](Cc2ccccc2)N2C(=O)C=CC2=O)cc1Cl [10j, 2-((3-chloro-4-methoxyphenyl)amino)-2-oxoethyl (S)-2-(2,5-dioxo-2,5-dihydro-1H-pyrrol-1-yl)-3-phenylpropanoate] | 97 | 1 ± 0.3 | 15.7 ± 0.8 | 67 ± 8 | 0.6 ± 0.1 |  |  | 4 | 3 |  |  |  |  |
| COc1ccc(NC(=O)COC(=O)[C@H](CC(C)C)N2CCCCC2)cc1Cl [10l, 2-((3-chloro-4-methoxyphenyl)amino)-2-oxoethyl (S)-4-methyl-2-(piperidin-1-yl)pentanoate] | 10 | 11.6 ± 2.4 | > 100 | > 64 |  |  |  |  |  | moderately active |  |  |  |
| COc1ccc(NC(=O)COC(=O)[C@H](CC(C)C)N2CCOCC2)cc1Cl [10m, 2-((3-chloro-4-methoxyphenyl)amino)-2-oxoethyl (S)-4-methyl-2-morpholinopentanoate] | 14 | 1.8 ± 0.4 | > 100 | > 64 |  |  |  |  |  | remarkably active |  |  |  |
| COc1ccc(NC(=O)COC(=O)[C@H](CC(C)C)N2CCN(C(=O)OC(C)(C)C)CC2)cc1Cl [10n, tert-butyl (S)-4-(1-(2-((3-chloro-4-methoxyphenyl)amino)-2-oxoethoxy)-4-methyl-1-oxopentan-2-yl)piperazine-1-carboxylate] | 8 | 1.6 ± 0.5 | 32 ± 5 | 27 ± 2 |  |  |  |  |  | remarkably active |  |  |  |
| COc1ccc(NC(=O)COC(=O)[C@H](CC(C)C)N2CCNCC2)cc1Cl.Cl [10o, 2-((3-chloro-4-methoxyphenyl)amino)-2-oxoethyl (S)-4-methyl-2-(piperazin-1-yl)pentanoate hydrochloride] | 35 | 1.7 ± 0.5 | 32 ± 3 | 52 ± 7 |  |  |  |  |  | remarkably active |  |  |  |
| O=C(Cn1ccnc1[N+](=O)[O-])NCc1ccccc1 [BZ, benznidazole, reference compound] |  |  | > 100 | > 64 |  |  |  |  |  |  | 3 ± 0.6 | up to 40% |  |
| COc1ccc(NCCOC(=O)C(CC(C)C)N2C(=O)C3CC=CCC3C2=O)cc1Cl (centres unmarked) [compound 7, 2-((3-chloro-4-methoxyphenyl)amino)ethyl 2-(1,3-dioxo-1,3,3a,4,7,7a-hexahydro-2H-isoindol-2-yl)-4-methylpentanoate] | 11 | 1.5 ± 0.4 | > 100 | 63 ± 8 |  |  |  |  |  | active |  |  | inactive |

— paper PMC6886403, “Structure-Based and Molecular Modeling Studies for the Discovery of Cyclic Imides as Reversible Cruzain Inhibitors With Potent Anti-Trypanosoma cruzi Activity” (Frontiers in Chemistry, 2019)
